Assay results: ChEMBL document CHEMBL1147065, “Identification of an in vivo inhibitor of Bacillus anthracis spore germination” (J Biol Chem, 2007)
Calls of active or inactive are those of the source. The rule behind the calls is not given here.

Tests used:
[1] = target: Bacillus anthracis; test: Inhibition of inosine and alanine-induced germination of Bacillus anthracis Sterne spore pre-incubated for 15 mins; format: functional, organism-based
[2] = tested on: Bacillus anthracis; test: Inhibition of cytopathic effect in Bacillus anthracis Sterne infected mouse RAW264.7 macrophage after 6 hrs by propidium iodide exclusion assay; format: functional, organism-based
[3] = tested on: Bacillus anthracis; test: Inhibition of cytopathic effect in Bacillus anthracis Sterne infected mouse RAW264.7 macrophage at 1 uM to 2 uM after 6 hrs by propidium iodide exclusion assay; format: functional; set-up: scale not given: the % may be the effect or the level left
[4] = tested on: Bacillus anthracis; test: Inhibition of cytopathic effect in Bacillus anthracis Sterne infected mouse RAW264.7 macrophage assessed as lack of propidium iodide positive cells after 7 hrs; format: functional, organism-based

Row | Compound | Ki [1] [µM] | Activity [2] | Activity [3] [%] | Activity [4]
1 | Nc1nc(N)c2ncn([C@@H]3O[C@H](CO)[C@@H](O)[C@H]3O)c2n1 | 68 | inactive | – | –
2 | Nc1nc(=S)c2ncn([C@@H]3O[C@H](CO)[C@@H](O)[C@H]3O)c2[nH]1 [THIOGUANOSINE] | 98 | – | 88 | Active
3 | CSc1ncnc2c1ncn2[C@@H]1O[C@H](CO)[C@@H](O)[C@H]1O | 31 | inactive | – | –
4 | OC[C@H]1O[C@@H](n2cnc3c(O)nc(O)nc32)[C@H](O)[C@@H]1O [XANTHOSINE] | 777 | inactive | – | –
5 | COc1nc(N)nc2c1ncn2[C@@H]1O[C@H](CO)[C@@H](O)[C@H]1O | 34 | inactive | – | –
6 | Nc1nc(Cl)c2ncn([C@@H]3O[C@H](CO)[C@@H](O)[C@H]3O)c2n1 | 87 | inactive | – | –
